Assay [1] relates to NIH 3T3 cells. Put plainly: Control of cellular division and proliferation induced by SPC ([3H]-thimidine incorporation). It counts as cell-based. The settings on record: for IC50: compound 0.001-1 μM 30 minutes, then SPC 7 μM, 24 hours, read-out: antagonistic effect on SPC IC50; for inhibition of cellular division and proliferation induced by SPC (in words): SPC 7 μM. Here is the method: Treatment of cells with sphingosylphosphorylcholine (SPC) can induce excessive cellular division and proliferation, thus causing pathological skin conditions [Desai, Biochem. Biophys. […] Accordingly, the compounds prepared in the above Examples were tested for an effect on cellular division and proliferation induced by SPC.
First, 1×10^5 (usually 1×10^4˜10^5) NIH 3T3 cells (American Type Culture Collection, Manassas, Va., USA) were dispensed and cultured on a culture plate, and then cultured in RPMI medium containing no fetal bovine serum for 24 hours to achieve serum starvation. The cells were treated with the compounds prepared in the above Examples, and FTY720, a sphingosine-1-phosphate (S1P) agonist, at concentrations of 0.001 μM, 0.01 μM, 0.1 μM and 1 μM, and were incubated for 30 minutes. Then, SPC (Biomol, Plymouth Meeting, Pa., USA) was added thereto at a concentration of 7 μM, and the cells were incubated at 37° C. for 24 hours. […] Proliferation %=(group treated with test drug−group not treated with SPC)/(group treated with SPC alone−group not treated with SPC)×100 [Equation 1]

Assay [2] concerns TPA-induced inflammation model. Put plainly: Control of inflammatory reaction in mouse TPA-induced inflammation model (ear weight and MPO activity). The settings on record: ICR mice; for Inhibition (%) of inflammatory reaction (ear edema, ear weight) / Inhibition (%) (MPO inhibition): 0.3% in acetone, 20 μl on the ear at 1 hour and 6 hours after TPA; for Inhibition (%) of inflammatory reaction (ear edema, ear weight): measured at 24 hours; for inhibition of TPA-induced inflammatory reactions, ear edema and MPO activity (in words): 0.3% topical, compared with hydrocortisone; for Inhibition (%) (MPO inhibition): value in brackets, MPO activity of ear at 24 hours. The class given is in vivo. The procedure: In order to examine an inhibitory effect on inflammatory reactions, the following test was carried out using tetradecanoyl phorbol acetate (hereinafter referred to as “TPA”)-induced inflammation model.
The TPA-induced inflammation model was a test method which has been widely used to test inflammatory reaction mechanisms and the effect of inhibitory substances [De Young L M et al., Agents and Actions, 1989, 26, 335-341]. When TPA which is a substance causing an inflammatory reaction is applied to the ear of a test subject, erythema and edema occur. Such inflammatory reactions are measurable through the increase in the activity of myeloperoxidase (MPO) which is essential for bacterial invasion into white blood cells.
Forty 6-week-old ICR mice were prepared, and 20 μl of a TPA solution (Sigma Aldrich Korea) obtained by dissolving TPA in acetone at a concentration of 125 μg/ml was applied to the left ear of each animal. At 1 hour after the application of TPA, 20 μl of each of acetone, the compounds of Examples dissolved in acetone at a concentration of 0.3%, and hydrocortisone (Sigma Aldrich Korea) dissolved in acetone at a concentration of 0.3% was applied to the TPA-applied site, and at 6 hours after the application of TPA, it was applied again to the same site in the same amount (20 μl). At 24 hours after the application of TPA, the mice were sacrificed by cervical dislocation, and the left ear was collected in a given width and measured for weight and MPO activity. Inhibition % of inflammatory reactions was calculated according to the following equation 3, and the results are shown in Table 4 below. Inhibition %=(group treated with TPA alone−group treated with test drug)/(group treated with TPA alone−group not treated with TPA)×100 [Equation 3]

[3] abbreviates: Mus musculus, NIH3T3, serum starved.

36 molecules from patent US7915405B2, “2,4-disubstituted-5-aminocarbonyl-1,3-thiazole derivatives for therapeutic agent of antiinflammatory disease, method thereof for preparation, therapeutic agent for antiinflammatory disease induced by SPC activity containing the same” (Korea Research Institute of Chemical Technology, priority 2008, dated 2011) can be followed below.

Read-outs that look alike come from different tables or passages of the source.

With `CC(C)(C)C(=O)Nc1nc(N2CCCCC2)sc1C(=O)N1CCOCC1` [Example 1-1], in assay [1] (setting [3]), the IC50 was determined as 932 nM. Also, the “Inhibition (%) of inflammatory reaction (ear edema, ear weight)” value (shortened to “Inhibition (%) of inflammatory reaction”) in assay [2] worked out at 21%. On to `CC(C)(C)C(=O)Nc1nc(N2CCN(c3ccccc3)CC2)sc1C(=O)N1CCOCC1` [Example 1-5], for which the 50% inhibitory concentration (IC50) in assay [1] (serum starved) worked out at 189 nM. Besides, the “Inhibition (%) of inflammatory reaction” value in assay [2] is listed as 30%. For `COc1ccccc1N1CCN(c2nc(NC(=O)C(C)(C)C)c(C(=O)N3CCOCC3)s2)CC1` [Example 1-7], the IC50 in assay [1] (serum starved) is 271 nM. For `CC(C)(C)C(=O)Nc1nc(N2CCN(c3ccc(Cl)cc3)CC2)sc1C(=O)N1CCOCC1` [Example 1-8], in assay [1] (serum starved), the IC50 was 730 nM.

As for `CC(C)(C)C(=O)Nc1nc(NCc2ccccc2)sc1C(=O)N1CCOCC1` [Example 1-10], the IC50 in assay [1] (serum starved) came to 68 nM. Also, the “Inhibition (%) of inflammatory reaction” value in assay [2] is 68%. On the same counts, the results for `COc1ccc(CNc2nc(NC(=O)C(C)(C)C)c(C(=O)N3CCOCC3)s2)cc1` [Example 1-11] are 93.7 nM and 49%.

Regarding `CC(C)(C)C(=O)Nc1nc(NCCN2CCCCC2)sc1C(=O)N1CCOCC1` [Example 1-12, N-{5-(morpholine-4-carbonyl)-2-[2-(piperidin-1-yl)ethylamino]thiazol-4-yl}pivalamide], the IC50 in assay [1] (setting [3]) was 5.81 nM. Moreover, in assay [1], the “inhibition of cellular division and proliferation induced by SPC (in words)” value (shortened to “inhibition … by SPC (in words)”) is “dose-dependently inhibited”. In assay [2], the “Inhibition (%) of inflammatory reaction” value stood at 86%; the “inhibition of TPA-induced inflammatory reactions, ear edema and MPO activity (in words)” value is reported as “significantly inhibited”; the “Inhibition (%) (MPO inhibition)” value amounted to 80%.

With `CC(C)(C)C(=O)Nc1nc(NCCN2CCCC2)sc1C(=O)N1CCOCC1` [Example 1-13], the IC50 in assay [1] (serum starved) is 12.7 nM. As for `CC(C)(C)C(=O)Nc1nc(N2CCC(N3CCOCC3)CC2)sc1C(=O)N1CCOCC1` [Example 1-14], the IC50 in assay [1] (serum starved) came to 9.3 nM. The “Inhibition (%) of inflammatory reaction” value in assay [2] was 71%. On to `CC(C)(C)C(=O)Nc1nc(N2CCC(N3CCCC3)CC2)sc1C(=O)N1CCOCC1` [Example 1-15], for which the IC50 in assay [1] (serum starved) worked out at 20.7 nM. The same measure, in the same setting: then `CC(C)(C)C(=O)Nc1nc(N2CCC(N3CCCCC3)CC2)sc1C(=O)N1CCOCC1` [Example 1-16], with 103 nM; and `CCCCC(=O)Nc1nc(NCc2ccccc2)sc1C(=O)N1CCOCC1` [Example 1-19], with 79 nM. Consider `CCCCC(=O)Nc1nc(NCCN2CCCCC2)sc1C(=O)N1CCOCC1` [Example 1-20], for which the IC50 in assay [1] (serum starved) worked out at 7.5 nM. The “Inhibition (%) of inflammatory reaction” value in assay [2] is listed as 62%. For `CCCCC(=O)Nc1nc(N2CCC(N3CCOCC3)CC2)sc1C(=O)N1CCOCC1` [Example 1-21], in that order: 57 nM and 52%. Take `CCCCC(=O)Nc1nc(N2CCC(N3CCCC3)CC2)sc1C(=O)N1CCOCC1` [Example 1-22]: the IC50 in assay [1] (serum starved) was 96 nM. Besides, in assay [2], the “Inhibition (%) of inflammatory reaction” value was found to be 53% and the “Inhibition (%) (MPO inhibition)” value turned out to be 48%.

With `COc1ccccc1N1CCN(c2nc(NC(C)=O)c(C(=O)N3CCOCC3)s2)CC1` [Example 1-23], in assay [1] (serum starved), the IC50 is 850 nM.

For `COc1ccccc1N1CCN(c2nc(NC(=O)C3CCCCC3)c(C(=O)N3CCOCC3)s2)CC1` [Example 1-24], the IC50 in assay [1] (serum starved) was found to be 910 nM. Turning to `COc1ccccc1N1CCN(c2nc(NC(=O)C3CC3)c(C(=O)N3CCOCC3)s2)CC1` [Example 1-25], the IC50 in assay [1] (serum starved) was found to be 67 nM. The same measure, in the same setting: the result for `CC(C)(C)C(=O)Nc1nc(NCC2CC2)sc1C(=O)N1CCCCC1` [Example 1-27] reads 308 nM. For the molecule `CC(C)(C)C(=O)Nc1nc(NCC2CCCCC2)sc1C(=O)N1CCCCC1` [Example 1-28], in assay [1] (serum starved), the IC50 worked out at 716 nM. In assay [2], the “Inhibition (%) of inflammatory reaction” value stood at 43%.

As to `CC(C)(C)C(=O)Nc1nc(NCc2ccccc2)sc1C(=O)N1CCCCC1` [Example 1-29, N-[2-(benzylamino)-5-(piperidine-1-carbonyl)thiazol-4-yl]pivalamide], in assay [1] (setting [3]), the IC50 was found to be 6.12 nM. Besides, in assay [1], the “inhibition … by SPC (in words)” value is “dose-dependently inhibited”. Further, in assay [2], the “Inhibition (%) of inflammatory reaction” value worked out at 87%; the “inhibition of TPA-induced inflammatory reactions, ear edema and MPO activity (in words)” value is given as “significantly inhibited”; the “Inhibition (%) (MPO inhibition)” value amounted to 83%. For the molecule `CC(C)(C)C(=O)Nc1nc(NCCN2CCCCC2)sc1C(=O)N1CCCCC1` [Example 1-30], the IC50 in assay [1] (serum starved) amounted to 878 nM. The “Inhibition (%) of inflammatory reaction” value in assay [2] is recorded as 59%.

For the molecule `Cc1ccccc1N1CCN(c2nc(NC(=O)C(C)(C)C)c(C(=O)N3CCCCC3)s2)CC1` [Example 1-32], in assay [1] (serum starved), the IC50 was determined as 45 nM. The “Inhibition (%) of inflammatory reaction” value in assay [2] is given as 43%.

As for `CC(C)(C)C(=O)Nc1nc(N2CCN(c3ccccc3F)CC2)sc1C(=O)N1CCCCC1` [Example 1-33], in assay [1] (serum starved), the IC50 was found to be 10.9 nM. Besides, in assay [2], the “Inhibition (%) of inflammatory reaction” value worked out at 47%. Take `CC(C)(C)C(=O)Nc1nc(N2CCN(c3ccc(F)cc3)CC2)sc1C(=O)N1CCCCC1` [Example 1-34]: the IC50 in assay [1] (serum starved) stood at 57 nM. The same measure, in the same setting: then `CC(C)(C)C(=O)Nc1nc(N2CCN(c3ccccc3C#N)CC2)sc1C(=O)N1CCCCC1` [Example 1-35], with 94 nM; and `CC(C)(C)C(=O)Nc1nc(N2CCN(c3ccccn3)CC2)sc1C(=O)N1CCCCC1` [Example 1-36], with 540 nM. As for `CC(C)(C)C(=O)Nc1nc(N2CCC(N3CCOCC3)CC2)sc1C(=O)N1CCCCC1` [Example 1-37], the IC50 in assay [1] (serum starved) was 89 nM. Besides, in assay [2], the “Inhibition (%) of inflammatory reaction” value is listed as 44% and the “Inhibition (%) (MPO inhibition)” value is listed as 47%. In the case of `CC(C)(C)C(=O)Nc1nc(N2CCC(N3CCCCC3)CC2)sc1C(=O)N1CCCCC1` [Example 1-38], the IC50 in assay [1] (serum starved) was determined as 176 nM.

Consider `CCCCC(=O)Nc1nc(NCc2ccccc2)sc1C(=O)N1CCCCC1` [Example 1-41], for which the IC50 in assay [1] (serum starved) came out at 9.8 nM. For the same molecule, in assay [2], the “Inhibition (%) of inflammatory reaction” value turned out to be 51%. As to `CCCCC(=O)Nc1nc(NCCN2CCCCC2)sc1C(=O)N1CCCCC1` [Example 1-42], in assay [1] (serum starved), the IC50 came out at 102 nM. Regarding `CCCCC(=O)Nc1nc(N2CCC(N3CCCC3)CC2)sc1C(=O)N1CCCCC1` [Example 1-44], the IC50 in assay [1] (serum starved) was 88.3 nM. In addition, the “Inhibition (%) of inflammatory reaction” value in assay [2] was found to be 57%.

`CC(C)(C)C(=O)Nc1nc(NCc2ccccc2)sc1C(=O)N1CCCC1` [Example 1-45]: in assay [1] (serum starved), the IC50 was determined as 970 nM. Turning to `COc1ccccc1N1CCN(c2nc(NC(=O)C(C)(C)C)c(C(=O)N3CCCC3)s2)CC1` [Example 1-49], the IC50 in assay [1] (serum starved) is 178 nM. Also, the “Inhibition (%) of inflammatory reaction” value in assay [2] is recorded as 38%.

Consider `CCCCCCCCc1ccc(CCC(N)(CO)CO)cc1` [FTY720, reference compound], for which the “inhibition … by SPC (in words)” value in assay [1] is on record as “did not inhibit”.

Turning to `C[C@]12CCC(=O)C=C1CC[C@@H]1[C@@H]2[C@@H](O)C[C@@]2(C)[C@H]1CC[C@]2(O)C(=O)CO` [Hydrocortisone, hydrocortisone, reference compound], the “Inhibition (%) of inflammatory reaction” value in assay [2] was 85%.
